Laboratory results as given in ChEMBL document CHEMBL1201862, “PubChem BioAssay data set” (2004).
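Cultured in 96-well plates, cells were exposed to test compound for 48 hours across five concentrations. The concentration for 50% growth inhibition is given as GI50.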 Active and inactive are the calls of the source. Cut-off read from the data, not from the text of the source: active = GI50 up to about 1.1 µM and inactive = higher.

How the values were obtained:
Assay in all cases: inhibition of tumour cell growth, NCI panel, 48 h
786-0 = test system: 786-0
A549 = test system: A549
CAKI-1 = test system: CAKI-1
COLO 205 = test system: COLO 205
DU-145 = test system: DU-145
EKVX = test system: EKVX
HCT-15 = test system: HCT-15
IGROV-1 = test system: IGROV-1
LOX IMVI = test system: LOX IMVI
M14 = test system: M14
MOLT-4 = test system: MOLT-4
NCI/ADR-RES = test system: NCI/ADR-RES
PC-3 = test system: PC-3
SF-295 = test system: SF-295
SN12C = test system: SN12C
SNB-19 = test system: SNB-19
T47D = test system: T47D
U-251 = test system: U-251
UACC-62 = test system: UACC-62

Row | Compound | GI50 (786-0) | GI50 (A549) | GI50 (CAKI-1) | GI50 (COLO 205) | GI50 (DU-145) | GI50 (EKVX) | GI50 (HCT-15) [µM] | GI50 (IGROV-1) | GI50 (LOX IMVI) | GI50 (M14) | GI50 (MOLT-4) | GI50 (NCI/ADR-RES) | GI50 (PC-3) | GI50 (SF-295) | GI50 (SN12C) | GI50 (SNB-19) | GI50 (T47D) | GI50 (U-251) | GI50 (UACC-62)
1 | Cc1cc2ccccc2c[n+]1CC(O)C[n+]1cc2ccccc2cc1C | > 100 µM (inactive) | > 100 µM (inactive) | > 100 µM (inactive) | > 100 µM (inactive) | > 100 µM (inactive) | > 100 µM (inactive) | > 100 | > 100 µM (inactive) | > 100 µM (inactive) | > 100 µM (inactive) | > 100 µM (inactive) | > 100 µM (inactive) | > 100 µM (inactive) | 20.1 µM (inactive) | > 100 µM (inactive) | > 100 µM (inactive) | > 100 µM (inactive) | > 100 µM (inactive) | > 100 µM (inactive)
2 | C[C@]12CC[C@H](O)C=C1CC[C@@H]1[C@@H]2CC[C@]2(C)C(=N/O)/C(=C/c3ccncc3)C[C@@H]12 | 12.9 µM (inactive) | 5.19 µM (inactive) | 14.9 µM (inactive) | 11.7 µM (inactive) | 6.34 µM (inactive) | 16.4 µM (inactive) | 5.19 | 14.8 µM (inactive) | 11.5 µM (inactive) | 5.7 µM (inactive) | 4.43 µM (inactive) | 17.5 µM (inactive) | 2.65 µM (inactive) | 12.2 µM (inactive) | 12.1 µM (inactive) | 11.9 µM (inactive) | 5.38 µM (inactive) | 6.64 µM (inactive) | 5.98 µM (inactive)
3 | CC(C)c1cc(C(C)C)c(P2(=O)CC3C(Cl)(Cl)C3(C)C2)c(C(C)C)c1 (centres undefined) | 6.22 µM (inactive) | 9.33 µM (inactive) | 4.71 µM (inactive) | 11.7 µM (inactive) | 14.5 µM (inactive) | 15.8 µM (inactive) | 9.53 | 12.1 µM (inactive) | 6.68 µM (inactive) | 8.71 µM (inactive) | 2.77 µM (inactive) | 6.04 µM (inactive) | 6.7 µM (inactive) | 7.31 µM (inactive) | 12.3 µM (inactive) | 7.91 µM (inactive) | 6.44 µM (inactive) | 8.67 µM (inactive) | 8.04 µM (inactive)
4 | N#CNC(=N)Nc1ccc(Cl)cc1 | > 100 µM (inactive) | > 100 µM (inactive) | > 100 µM (inactive) | > 100 µM (inactive) | > 100 µM (inactive) | > 100 µM (inactive) | > 100 | > 100 µM (inactive) | > 100 µM (inactive) | > 100 µM (inactive) | 36.4 µM (inactive) | > 100 µM (inactive) | > 100 µM (inactive) | > 100 µM (inactive) | > 100 µM (inactive) | > 100 µM (inactive) | > 100 µM (inactive) | > 100 µM (inactive) | > 100 µM (inactive)
5 | OCCNCCN1CCN(CCCN2c3ccccc3Sc3ccc(C(F)(F)F)cc32)CC1 | 17.3 µM (inactive) | 24 µM (inactive) | 76.2 µM (inactive) | 18.2 µM (inactive) | 50.6 µM (inactive) | 28.1 µM (inactive) | 19.7 | > 100 µM (inactive) | 14.5 µM (inactive) | 15.3 µM (inactive) | > 100 µM (inactive) | 27.8 µM (inactive) | 32 µM (inactive) | 20.4 µM (inactive) | 18.2 µM (inactive) | 24.7 µM (inactive) | 27.1 µM (inactive) | 20.3 µM (inactive) | 22.3 µM (inactive)
6 | COc1ccc(C2CC(c3c(O)ccc4ccccc34)=NN2c2ccc([N+](=O)[O-])cc2[N+](=O)[O-])cc1OC (centres undefined) | 29 µM (inactive) | 17.1 µM (inactive) | 16.9 µM (inactive) | 22.3 µM (inactive) | 30.3 µM (inactive) | 14 µM (inactive) | 27 | 13 µM (inactive) | 25.9 µM (inactive) | 32.7 µM (inactive) | 4.78 µM (inactive) | 3.66 µM (inactive) | 11.5 µM (inactive) | 12.2 µM (inactive) | 29.8 µM (inactive) | 15.3 µM (inactive) | 6.25 µM (inactive) | 17.6 µM (inactive) | 15.3 µM (inactive)
